Test results reported in PMC3913652 (PLoS ONE, 2014).

Tests used:
[1] = molecular target: T1, rat GLP-1 receptor (Rattus norvegicus, UniProt P32301); assay: GLP-1 receptor functional assay (cAMP); assay type: cell-based; conditions: 6–23 clone 6 cells, HBSS 0.1% BSA, 250 µM IBMX, 30 minutes, quadruplicates
T1 construct: 6–23 clone 6 cells endogenously expressing the rat GLP-1 receptor; endogenous in cells; host or cells: 6-23 clone 6 cells
T1 sequence (P32301 22-463): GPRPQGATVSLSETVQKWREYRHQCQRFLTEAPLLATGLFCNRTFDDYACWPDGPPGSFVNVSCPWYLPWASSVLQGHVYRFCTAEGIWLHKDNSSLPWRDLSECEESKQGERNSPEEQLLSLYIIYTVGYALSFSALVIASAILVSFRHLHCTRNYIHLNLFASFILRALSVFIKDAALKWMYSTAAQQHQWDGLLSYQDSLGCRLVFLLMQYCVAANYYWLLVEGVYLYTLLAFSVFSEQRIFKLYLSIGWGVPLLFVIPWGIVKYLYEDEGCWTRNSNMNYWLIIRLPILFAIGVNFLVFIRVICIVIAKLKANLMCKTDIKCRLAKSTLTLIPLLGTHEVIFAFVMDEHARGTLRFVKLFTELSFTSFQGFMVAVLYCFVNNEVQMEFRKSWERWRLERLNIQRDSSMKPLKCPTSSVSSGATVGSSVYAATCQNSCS
Protocol: Following 30 minutes incubation, the cAMP was measured using the cAMP Dynamic 2 assay (Cisbio US, Bedford, MA) as per the manufacturer’s instructions. cAMP was detected by a decrease in time-resolved fluorescence energy transfer using a GeniousPro plate reader (Tecan US, San Jose, CA).
Results are presented as means ± SEM, graphed and analyzed using GraphPad Prism 5®. The potency of peptides in the in vitro functional assay and in an OGTT was determined by the analysis of concentration-response curves using non-linear regression analysis.

[2] = Stability in pancreatic digestive enzyme mix; assay type: in vitro ADME; conditions: 50 mM phosphate buffer pH 6.8, peptide 30 mM, 20:1 peptide to pancreatic mixture, 37°C, reverse-phase HPLC, AUC 0–2 h as % remaining vs stable control ± SEM, n = 3 (exenatide, [Leu^14]exenatide-ABP n = 2)
Protocol: Stability of peptides was also assessed in a mixture of amylase, lipase and protease (pancreatin, Cat.# P7545-25 g, Sigma-Aldrich, St. Louis, MO), which are digestive enzymes produced by pancreatic exocrine cells. Peptides (30 mM) in 50 mM phosphate buffer (pH 6.8) and citrate buffers (pH 4 & pH 5) were incubated for 2 hours in pancreatic mixture at 37°C (20∶1 ratio of peptide to pancreatic mixture) (n = 3). The enzymatic reaction was stopped with the addition of 0.2 N HCl (final concentration of peptide 10 mM) at each time point.

SMILES: CC[C@H](C)[C@H](NC(=O)[C@H](Cc1c[nH]cn1)NC(=O)[C@H](CC(C)C)NC(=O)[C@H](CCCCN)NC(=O)[C@H](CC(C)C)NC(=O)[C@H](C)NC(=O)[C@H](CCC(=O)O)NC(=O)[C@@H](NC(=O)CNC(=O)[C@H](CCC(=O)O)NC(=O)[C@@H](NC(=O)[C@@H](NC(=O)[C@H](CCCCN)NC(=O)[C@H](C)NC(=O)[C@H](CCCCN)NC(=O)[C@H](CC(N)=O)NC(=O)[C@@H](NC(=O)[C@H](CC(C)C)NC(=O)[C@H](CCCNC(=N)N)NC(=O)[C@H](CCCCN)NC(=O)[C@H](Cc1ccc(O)cc1)NC(=O)[C@H](Cc1ccccc1)NC(=O)[C@H](CC(=O)O)NC(=O)[C@H](CO)NC(=O)[C@@H](NC(=O)CNC(=O)[C@H](Cc1ccc(O)cc1)NC(=O)[C@H](CCCCN)NC(=O)[C@H](CC(=O)O)NC(=O)[C@H](CC(C)C)NC(=O)[C@H](CCC(=O)O)NC(=O)[C@H](CCCNC(=N)N)NC(=O)[C@H](CC(N)=O)NC(=O)[C@H](C)NC(=O)[C@H](CC(C)C)NC(=O)[C@@H](NC(=O)[C@H](CCCCN)NC(=O)[C@H](C)NC(=O)[C@H](CCC(=O)O)NC(=O)[C@H](C)NC(=O)[C@@H](N)CC(C)C)C(C)C)C(C)C)[C@@H](C)CC)[C@@H](C)O)C(C)C)C(C)C)C(=O)N[C@@H](CC(C)C)C(=O)N[C@@H](C)C(=O)N[C@@H](C)C(=O)N[C@@H](CC(C)C)C(=O)N1CCC[C@H]1C(=O)O [ABD035]
- GLP-1 Receptor Functional Assay EC50 [1]: not active
- 2 h Stability in Pancreatin Mix (%) pH 6.8 [2]: 10±2%
